Source: patent US20190255086A1, “Compositions and Methods for Treating an Infection” (CMPD Licensing, LLC, priority 2015, published 2019)

How the values were obtained:
Haemophilus influenzae = assay: Expected efficacy of anti-bacterial agents against various bacteria (Tables 5 and 6); details: Gram: neg
Neisseria gonorrhoeae = assay: as above; details: Gram: neg
Legionella pneumophila = details: expected efficacy; Legionella pneumophila; Gram: neg
Proteus vulgaris = assay: Expected efficacy of anti-bacterial agents against various bacteria (Tables 5 and 6); details: Gram: neg
Clostridium perfringens = details: expected efficacy; Clostridium perfringens; Gram: anaer
Acinetobacter baumannii = assay: Expected efficacy of anti-bacterial agents against various bacteria (Tables 5 and 6); details: Gram: neg
Streptococcus pyogenes = assay: as above; details: Gram: pos
Peptostreptococcus = assay: as above; details: Gram: pos
Bordetella pertussis = assay: as above; details: Gram: neg
Morganella morganii = assay: as above; details: Gram: neg
Rickettsiae = details: expected efficacy; Rickettsiae; Gram: neg
Enterobacter aerogenes = assay: Expected efficacy of anti-bacterial agents against various bacteria (Tables 5 and 6); details: Gram: neg
Salmonella typhi = assay: as above; details: Gram: neg
Enterobacter cloacae = assay: as above; details: Gram: neg
[1] = tested on: Klebsiella (Calymmatobacterium) granulomatis; assay: as above; details: Gram: neg
Providencia rettgeri = assay: as above; details: Gram: neg
[2] = tested on: Haemophilus parainfluenzae; assay: as above; details: Gram: neg
Campylobacter jejuni = assay: as above; details: Gram: neg
[3] = tested on: Staphylococcus aureus (MSSA); assay: as above; details: Gram: pos
[4] = tested on: Viridans group streptococci; assay: as above; details: Gram: pos
Mycoplasma pneumoniae = assay: as above; details: Gram: n/a
Moraxella catarrhalis = assay: as above; details: Gram: neg
[5] = tested on: Methicillin resistant staph aureus (MRSA); assay: as above; details: Gram: pos
Shigella sonnei = assay: as above; details: Gram: neg
Klebsiella oxytoca = assay: as above; details: Gram: neg
Serratia marcescens = assay: as above; details: Gram: neg
Haemophilus ducreyi = assay: as above; details: Gram: neg
Citrobacter freundii = assay: as above; details: Gram: neg
[6] = tested on: Corynebacterium urealyticum; assay: as above; details: Gram: pos
Chlamydia pneumoniae = assay: as above; details: Gram: n/a
Shigella flexneri = assay: as above; details: Gram: neg
Providencia stuartii = assay: as above; details: Gram: neg
Escherichia coli = assay: as above; details: Gram: neg
[7] = tested on: Staphylococcus epidermidis; assay: as above; details: Gram: pos
Chlamydia trachomatis = assay: as above; details: Gram: n/a
Enterococcus faecalis = assay: as above; details: Gram: pos
Streptococcus pneumoniae = assay: as above; details: Gram: pos
Chlamydia psittaci = details: expected efficacy; Chlamydia psittaci; Gram: n/a
Neisseria meningitidis = assay: Expected efficacy of anti-bacterial agents against various bacteria (Tables 5 and 6); details: Gram: neg
Vibrio cholerae = assay: as above; details: Gram: neg
Yersinia pestis = details: expected efficacy; Yersinia pestis; Gram: neg
Shigella dysenteriae = assay: Expected efficacy of anti-bacterial agents against various bacteria (Tables 5 and 6); details: Gram: neg
Enterobacter sakazakii = assay: as above; details: Gram: neg
Clostridium difficile = assay: as above; details: Gram: anaer
Klebsiella pneumoniae = assay: as above; details: Gram: neg
Citrobacter diversus = assay: as above; details: Gram: neg
Shigella boydii = assay: as above; details: Gram: neg
Proteus mirabilis = assay: as above; details: Gram: neg
Streptococcus agalactiae = assay: as above; details: Gram: pos
Enterococcus faecium = assay: as above; details: Gram: pos
Corynebacterium jeikeium = assay: as above; details: Gram: pos
[8] = tested on: Acinetobacter calcoaceticus; assay: as above; details: Gram: neg
Francisella tularensis = details: expected efficacy; Francisella tularensis; Gram: neg
Pseudomonas aeruginosa = assay: Expected efficacy of anti-bacterial agents against various bacteria (Tables 5 and 6); details: Gram: neg
Acinetobacter lwoffii = assay: as above; details: Gram: neg
Diphtheroids = assay: as above; details: Gram: pos
Bacteroides fragilis = assay: as above; details: Gram: anaer

Measured: Efficacy of various antibiotic agents

CO/N=C(\C(=O)N[C@@H]1C(=O)N2C(C(=O)O)=C(CSc3nc(=O)c(=O)[nH]n3C)CS[C@H]12)c1csc(N)n1 [Ceftriaxone]
no: Legionella pneumophila | Acinetobacter baumannii | Bordetella pertussis | Rickettsiae | Campylobacter jejuni | Mycoplasma pneumoniae | [5] | [6] | Chlamydia pneumoniae | Chlamydia trachomatis | Enterococcus faecalis | Chlamydia psittaci | Vibrio cholerae | Yersinia pestis | Clostridium difficile | Enterococcus faecium | Corynebacterium jeikeium | [8] | Francisella tularensis | Pseudomonas aeruginosa | Acinetobacter lwoffii | Diphtheroids
yes: all other assays above
